In PMC9699427 (Viruses, 2022):
Read-outs that look alike come from different tables or passages of the source.

Key:
HIV-1IIIB = assay: Anti-HIV-1 activity, MTT protection of MT-4 cells; format: cell-based; conditions: Human immunodeficiency virus 1, MT4, MT-4, MTT
[1] = Pharmacokinetics after iv and oral dosing; format: in vivo, BALB/c mice; conditions: for half-life: read-out: t1/2z (converted)
[2] = test system: HIV-1IIIB chronically infected H9 cells; assay: HIV-1 replication in chronically infected H9/HIV-1IIIB cells, p24; format: cell-based
HIV-1Yu-2(G140S/Q148H) = assay: microbe, parasite or virus in culture; format: cell-based; conditions: Human immunodeficiency virus 1, TZM-bl
[3] = mouse, plasma, iv 2 mg/kg, female BALB/c mice
[4] = mouse, plasma, iv 2 mg/kg, male BALB/c mice
[5] = mouse, plasma, po 30 mg/kg, female BALB/c mice
[6] = mouse, plasma, po 30 mg/kg, male BALB/c mice
[7] = mouse, plasma, po 60 mg/kg, female BALB/c mice
[8] = mouse, plasma, po 60 mg/kg, male BALB/c mice
[9] = mouse, plasma, po 120 mg/kg, female BALB/c mice
[10] = mouse, plasma, po 120 mg/kg, male BALB/c mice
[11] = po 30 mg/kg, female BALB/c mice
[12] = po 60 mg/kg, female BALB/c mice
[13] = po 120 mg/kg, female BALB/c mice

SMILES: Cc1cc(C#N)cc(C)c1Oc1nc(NC2CCN(Cc3ccc(S(N)(=O)=O)cc3)CC2)nc2ccsc12 [K-5a2]
- EC50 (HIV-1IIIB): 1.74 ± 0.11 nM
- bioavailability ([1]; BALB/c, mouse, plasma, female mice, oral doses, read-out: Oral bioavailability): 8.5 ± 2.7%
- bioavailability ([1]; BALB/c, mouse, plasma, male mice, oral doses, read-out: Oral bioavailability): 6.8 ± 1.3%
- Tmax ([1]; both, mouse, plasma, single oral administration at 30, 60, or 120 mg/kg, BALB/c mice, read-out: Time to peak plasma concentration): 15 to 30 min
- Cmax ([1]; female, BALB/c, mouse, plasma, iv, 2 mg/kg, iv 2 mg/kg, female BALB/c mice, read-out: Cmax): 1100 ng/mL
- Cmax ([1]; female, BALB/c, mouse, plasma, po, 30 mg/kg, po 30 mg/kg, female BALB/c mice, read-out: Cmax): 416 ng/mL
- Cmax ([1]; female, BALB/c, mouse, plasma, po, 60 mg/kg, po 60 mg/kg, female BALB/c mice, read-out: Cmax): 1100 ng/mL
- Cmax ([1]; female, BALB/c, mouse, plasma, po, 120 mg/kg, po 120 mg/kg, female BALB/c mice, read-out: Cmax): 1940 ng/mL
- Cmax ([1]; iv 2 mg/kg, female BALB/c mice, 2 mg/kg): 1098.3 ng/mL
- Cmax ([1]; iv 2 mg/kg, male BALB/c mice, 2 mg/kg): 1078.7 ng/mL
- Cmax ([1]; male, BALB/c, mouse, plasma, iv, 2 mg/kg, iv 2 mg/kg, male BALB/c mice, read-out: Cmax): 1080 ng/mL
- Cmax ([1]; male, BALB/c, mouse, plasma, po, 30 mg/kg, po 30 mg/kg, male BALB/c mice, read-out: Cmax): 345 ng/mL
- Cmax ([1]; male, BALB/c, mouse, plasma, po, 60 mg/kg, po 60 mg/kg, male BALB/c mice, read-out: Cmax): 749 ng/mL
- Cmax ([1]; male, BALB/c, mouse, plasma, po, 120 mg/kg, po 120 mg/kg, male BALB/c mice, read-out: Cmax): 1680 ng/mL
- AUC(0-t) [1, 3]: 461 ng·h/mL
- clearance [1, 3]: 69.2 mL/min/kg
- Tmax ([1]; mouse, plasma, iv 2 mg/kg, female BALB/c mice, read-out: Tmax): 1.98 min
- Vd ([1]; mouse, plasma, iv 2 mg/kg, female BALB/c mice, read-out: Vd): 14.1 L/kg
- half-life [1, 3]: 141 min
- AUC(0-t) [1, 4]: 454 ng·h/mL
- clearance [1, 4]: 70.5 mL/min/kg
- Tmax ([1]; mouse, plasma, iv 2 mg/kg, male BALB/c mice, read-out: Tmax): 1.98 min
- Vd ([1]; mouse, plasma, iv 2 mg/kg, male BALB/c mice, read-out: Vd): 13.3 L/kg
- half-life [1, 4]: 131 min
- AUC(0-t) [1, 5]: 488 ng·h/mL
- bioavailability ([1]; mouse, plasma, po 30 mg/kg, female BALB/c mice, read-out: F): 7.05%
- Tmax ([1]; mouse, plasma, po 30 mg/kg, female BALB/c mice, read-out: Tmax): 15 min
- half-life [1, 5]: 65.4 min
- AUC(0-t) [1, 6]: 482 ng·h/mL
- bioavailability ([1]; mouse, plasma, po 30 mg/kg, male BALB/c mice, read-out: F): 7.08%
- Tmax ([1]; mouse, plasma, po 30 mg/kg, male BALB/c mice, read-out: Tmax): 30 min
- half-life [1, 6]: 62.4 min
- AUC(0-t) [1, 7]: 1420 ng·h/mL
- bioavailability ([1]; mouse, plasma, po 60 mg/kg, female BALB/c mice, read-out: F): 10.2%
- Tmax ([1]; mouse, plasma, po 60 mg/kg, female BALB/c mice, read-out: Tmax): 15 min
- half-life [1, 7]: 71.4 min
- AUC(0-t) [1, 8]: 968 ng·h/mL
- bioavailability ([1]; mouse, plasma, po 60 mg/kg, male BALB/c mice, read-out: F): 7.1%
- Tmax ([1]; mouse, plasma, po 60 mg/kg, male BALB/c mice, read-out: Tmax): 30 min
- half-life [1, 8]: 85.2 min
- AUC(0-t) [1, 9]: 3580 ng·h/mL
- bioavailability ([1]; mouse, plasma, po 120 mg/kg, female BALB/c mice, read-out: F): 12.9%
- Tmax ([1]; mouse, plasma, po 120 mg/kg, female BALB/c mice, read-out: Tmax): 30 min
- half-life [1, 9]: 49.2 min
- AUC(0-t) [1, 10]: 2460 ng·h/mL
- bioavailability ([1]; mouse, plasma, po 120 mg/kg, male BALB/c mice, read-out: F): 9.05%
- Tmax ([1]; mouse, plasma, po 120 mg/kg, male BALB/c mice, read-out: Tmax): 30 min
- half-life [1, 10]: 105 min
- CL [1, 11]: 1007 mL/min/kg
- Vd [1, 11]: 95.0 L/kg
- CL ([1]; po 30 mg/kg, male BALB/c mice): 1016 mL/min/kg
- Vd ([1]; po 30 mg/kg, male BALB/c mice): 91.4 L/kg
- CL [1, 12]: 697.5 mL/min/kg
- Vd [1, 12]: 71.9 L/kg
- CL ([1]; po 60 mg/kg, male BALB/c mice): 1021 mL/min/kg
- Vd ([1]; po 60 mg/kg, male BALB/c mice): 125.1 L/kg
- CL [1, 13]: 557.2 mL/min/kg
- Vd [1, 13]: 39.7 L/kg
- CL ([1]; po 120 mg/kg, male BALB/c mice): 791.3 mL/min/kg
- Vd ([1]; po 120 mg/kg, male BALB/c mice): 120.2 L/kg
- EC50 ([2]; Human immunodeficiency virus 1, HIV-1IIIB, H9/HIV-1IIIB chronically infected, p24): > 50000 nM
- Inhibition of HIV-1 replication in HIV-1IIIB chronically infected H9 cells ([2]; at a concentration of 50.00 µM): could not inhibit the replication
- EC50 (HIV-1Yu-2(G140S/Q148H)): 0.26 ± 0.28 nM
